Results from patent US5770617A, “Terbenzimidazoles useful as antifungal agents” (Rutgers, The State University of New Jersey, priority 1997, dated 1998).

Key:
[1] = molecular target: T1, calf thymus topoisomerase I (Bos taurus, UniProt F1MN93); assay: Topoisomerase I-mediated DNA cleavage assay (calf thymus enzyme); format: biochemical; conditions: for Topo I-mediated DNA cleavage (REC, Relative Effective Concentration): concentration relative to Hoechst 33342 (arbitrarily 1) producing the same cleavage on plasmid DNA, calf thymus topoisomerase I
T1 construct: DNA topoisomerase I was purified from calf thymus gland as reported previously; from tissue; host or cells: calf thymus gland
T1 sequence (F1MN93 1-767): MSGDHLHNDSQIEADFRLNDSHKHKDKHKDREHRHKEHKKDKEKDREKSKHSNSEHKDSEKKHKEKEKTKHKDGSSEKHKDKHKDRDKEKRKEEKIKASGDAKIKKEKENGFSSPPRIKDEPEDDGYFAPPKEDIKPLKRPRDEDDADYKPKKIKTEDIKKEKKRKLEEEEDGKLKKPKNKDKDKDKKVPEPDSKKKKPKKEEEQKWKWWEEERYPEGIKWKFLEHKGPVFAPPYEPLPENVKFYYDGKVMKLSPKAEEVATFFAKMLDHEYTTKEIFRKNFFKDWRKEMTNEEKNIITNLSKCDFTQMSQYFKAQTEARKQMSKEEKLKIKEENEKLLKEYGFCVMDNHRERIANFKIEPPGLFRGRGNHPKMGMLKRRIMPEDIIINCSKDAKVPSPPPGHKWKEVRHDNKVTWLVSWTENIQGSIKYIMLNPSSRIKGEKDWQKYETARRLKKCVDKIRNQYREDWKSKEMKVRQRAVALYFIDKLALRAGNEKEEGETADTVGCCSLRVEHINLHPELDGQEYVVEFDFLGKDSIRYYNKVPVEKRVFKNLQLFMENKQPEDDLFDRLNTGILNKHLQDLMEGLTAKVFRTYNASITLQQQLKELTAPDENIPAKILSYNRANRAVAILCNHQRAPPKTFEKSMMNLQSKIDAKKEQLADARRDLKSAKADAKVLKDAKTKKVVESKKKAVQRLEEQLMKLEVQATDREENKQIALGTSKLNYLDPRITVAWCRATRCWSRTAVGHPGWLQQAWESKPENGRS
From the text: A. Topoisomerase I-Mediated DNA Cleavage Assays
DNA topoisomerase I was purified from calf thymus gland as reported previously by B. D. Halligan et al., J. Biol. Chem., 260, 2475 (1985).
Plasmid YEpG was also purified by the alkali lysis method followed by phenol deproteination and CsCl/ethidium isopycnic centrifugation as described by T. Maniatis et al., Molecular Cloning, A Laboratory Manual, Cold Spring Harbor Labs, N.Y. (1982) at pages 149-185. The end-labeling of the plasmid was accomplished as previously described by L. F. Liu et al., J. Biol. Chem., 258, 15365 (1983). The cleavage assays were performed as previously reported by A. Y. Chen et al., Cancer Res., 53, 1332 (1993). Human topoisomerase I was isolated as a recombinant fusion protein using a T7 expression system.

[2] = molecular target: T2, Aspergillus topoisomerase I (Aspergillus nidulans, UniProt Q5BGS7); assay: Covalent transfer of 32P radioactivity from DNA to topoisomerase I (phosphate-transfer); format: biochemical; conditions: for phosphate transfer to 105 kDa Aspergillus topoisomerase I: Ho33342 1 mM
T2 construct: about 105 kDa by phosphate transfer
T2 sequence (Q5BGS7 1-871): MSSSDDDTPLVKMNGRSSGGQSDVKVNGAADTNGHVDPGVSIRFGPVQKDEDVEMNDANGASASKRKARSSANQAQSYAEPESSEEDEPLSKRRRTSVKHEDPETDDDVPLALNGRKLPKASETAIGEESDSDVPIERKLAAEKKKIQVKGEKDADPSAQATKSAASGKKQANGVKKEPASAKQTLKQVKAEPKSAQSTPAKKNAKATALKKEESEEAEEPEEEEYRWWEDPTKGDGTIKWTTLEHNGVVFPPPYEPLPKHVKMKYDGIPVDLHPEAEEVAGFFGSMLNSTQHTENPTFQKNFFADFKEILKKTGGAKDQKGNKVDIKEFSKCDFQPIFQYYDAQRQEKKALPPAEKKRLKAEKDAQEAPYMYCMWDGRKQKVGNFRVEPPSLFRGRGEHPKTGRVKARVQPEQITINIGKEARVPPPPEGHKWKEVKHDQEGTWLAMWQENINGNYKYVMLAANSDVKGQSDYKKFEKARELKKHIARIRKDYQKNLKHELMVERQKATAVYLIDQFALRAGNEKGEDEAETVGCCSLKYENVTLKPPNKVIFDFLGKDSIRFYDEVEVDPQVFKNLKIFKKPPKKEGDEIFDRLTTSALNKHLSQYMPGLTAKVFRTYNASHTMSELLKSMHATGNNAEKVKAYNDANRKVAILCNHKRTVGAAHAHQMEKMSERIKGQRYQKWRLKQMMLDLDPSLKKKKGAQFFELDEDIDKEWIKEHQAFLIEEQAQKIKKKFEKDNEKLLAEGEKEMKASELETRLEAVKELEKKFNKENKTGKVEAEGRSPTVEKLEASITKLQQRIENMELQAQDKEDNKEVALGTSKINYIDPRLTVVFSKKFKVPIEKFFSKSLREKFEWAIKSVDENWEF
Procedure: This phosphate-transfer method was a modification of the procedure described previously by T. C. Rowe et al., J. Biol. Chem., 259, 9177 (1984). Briefly, a 100-μl reaction mixture containing 10 mM Tris-HCl, pH 7.5, 1 mM MgCl2, 0.5 mM dithiothreitol, 30 μg/ml of bovine serum albumin, drug (camptothecin or Hoechst 33342) at an indicated concentration, 50 ng of YEpG DNA labeled with ^32 PdATP by the random primer method (Random Primed Labeling Kit, Boehringer Mannheim), and 300 units of human or Aspergillus topoisomerase I, was incubated at 37° C. for 10 minutes. The reactions were terminated by adding NaOH to 0.18M and EDTA to 2.5 mM. After neutralizing the reaction with a precalibrated amount of Tris-HCl, 9 μl of 0.1M CaCl2 and 7.5 μl of 20% SDS were added, and the volume was adjusted to 300 μl with H2 O.
Five units of Bal31 nuclease (New England, BioLabs) were added, and the sample was digested for 1 hour at 25° C. The reaction was terminated by extraction with 1 volume of phenol. The phenol phase was saved and back-extracted once with an equal volume of 10 mM Tris-HCl, pH 8.0, 1 mM EDTA. The protein-oligonucleotide complexes were then precipitated from the phenol phase by adding 10 volumes of ice-cold acetone and placing on ice for 10 minutes. The pellet was dissolved in SDS sample buffer and analyzed by SDS-PAGE. Gel drying and autoradiography were done as described (Hsiang et al., J. Biol. Chem., 260, 14873 (1985)).

[3] = system: KBV-1 cells (multidrug-resistant variant, overexpress MDR1); conditions: cited from earlier work

SMILES | Topo I-mediated DNA cleavage (REC, Relative Effective Concentration) [1] | phosphate transfer to 105 kDa Aspergillus topoisomerase I [2] | further results
N#Cc1ccc2[nH]c(-c3ccc4[nH]c(-c5ccc6[nH]cnc6c5)nc4c3)nc2c1 [Compound 11, 5-Cyano-2-[2'-(benzimidazol-5"-yl)benzimidazol-5'-yl]benzimidazole] | 1 |  | 
c1ccc(-c2ccc3[nH]c(-c4ccc5[nH]c(-c6ccc7[nH]cnc7c6)nc5c4)nc3c2)cc1 [Compound 13, 5-Phenyl-2-[2'(benzimidazol-5"-yl)benzimidazol-5'-yl]benzimidazole] | 2 |  | potency as topoisomerase I inhibitor compared with Hoechst 33342, in words [1]: approximately one-half as potent
CCOc1ccc(-c2nc3cc(-c4nc5cc(N6CCN(C)CC6)ccc5[nH]4)ccc3[nH]2)cc1 [Hoechst 33342, 2'-(4-ethoxyphenyl)-5-(4-methyl-1-piperazinyl)-2,5'-bi-1H-benzimidazole] |  | stimulated the phosphate transfer | phosphate transfer at higher concentrations ([2]; higher concentrations of Ho33342): progressively inhibited; fold less cytotoxic to KB V-1 cells than to KB 3-1 ([3]; background, previously reported): approximately 130 fold; difference of IC50 for KB 3-1 as compared to KB V-1 cells ([3]; reported by A. Y. Chen et al. 1994): approximately two-orders of magnitude
CC[C@@]1(O)C(=O)OCc2c1cc1n(c2=O)Cc2cc3ccccc3nc2-1 [camptothecin] |  | stimulated the phosphate transfer | 
